Tests used:
Assay in all cases: KINOMEscan scanMAX
Type in all cases: binding
Settings in all cases: read-out: Percent Control
EIF2AK1 = biological target: T1, EIF2AK1 (Homo sapiens, UniProt Q9BQI3)
T1 construct: purchased Eurofins Discovery (DiscoverX KINOMEscan scanMAX)
Procedure: (§1) The kinome-wide binding assay was performed by Eurofins Discovery using the scanMAX screening platform. More information can be found on the Eurofins Discovery Web site.

[1] = biological target: T2, JAK3(JH1domain-catalytic) (Homo sapiens, UniProt P52333)
T2 construct: JAK3(JH1domain-catalytic); purchased Eurofins Discovery (DiscoverX KINOMEscan scanMAX)
Procedure: as §1

FLT3(N841I) = biological target: T3, FLT3(N841I) (Homo sapiens, UniProt P36888, N841I)
T3 construct: purchased Eurofins Discovery (DiscoverX KINOMEscan scanMAX)
Procedure: as §1

PKAC-alpha = biological target: T4, PKAC-alpha (Homo sapiens, UniProt P17612)
T4 construct: purchased Eurofins Discovery (DiscoverX KINOMEscan scanMAX)
Procedure: as §1

PIK3CG = biological target: T5, PIK3CG (Homo sapiens, UniProt P48736)
T5 construct: purchased Eurofins Discovery (DiscoverX KINOMEscan scanMAX)
Procedure: as §1

[2] = biological target: T6, ABL1(H396P)-nonphosphorylated (Homo sapiens, UniProt P00519, H396P)
T6 construct: purchased Eurofins Discovery (DiscoverX KINOMEscan scanMAX)
Procedure: as §1

[3] = biological target: T7, JAK2(JH1domain-catalytic) (Homo sapiens, UniProt O60674)
T7 construct: JAK2(JH1domain-catalytic); purchased Eurofins Discovery (DiscoverX KINOMEscan scanMAX)
Procedure: as §1

IRAK1 = biological target: T8, IRAK1 (Homo sapiens, UniProt P51617)
T8 construct: purchased Eurofins Discovery (DiscoverX KINOMEscan scanMAX)
Procedure: as §1

MST1R = biological target: T9, MST1R (Homo sapiens, UniProt Q04912)
T9 construct: purchased Eurofins Discovery (DiscoverX KINOMEscan scanMAX)
Procedure: as §1

CAMKK2 = biological target: T10, CAMKK2 (Homo sapiens, UniProt Q96RR4)
T10 construct: purchased Eurofins Discovery (DiscoverX KINOMEscan scanMAX)
Procedure: as §1

PLK1 = biological target: T11, PLK1 (Homo sapiens, UniProt P53350)
T11 construct: purchased Eurofins Discovery (DiscoverX KINOMEscan scanMAX)
Procedure: as §1

EPHA7 = biological target: T12, EPHA7 (Homo sapiens, UniProt Q15375)
T12 construct: purchased Eurofins Discovery (DiscoverX KINOMEscan scanMAX)
Procedure: as §1

RIOK1 = biological target: T13, RIOK1 (Homo sapiens, UniProt Q9BRS2)
T13 construct: purchased Eurofins Discovery (DiscoverX KINOMEscan scanMAX)
Procedure: as §1

[4] = biological target: T14, JAK1(JH2domain-pseudokinase) (Homo sapiens, UniProt P23458)
T14 construct: JAK1(JH2domain-pseudokinase); purchased Eurofins Discovery (DiscoverX KINOMEscan scanMAX)
Procedure: as §1

PIK3C2G = biological target: T15, PIK3C2G (Homo sapiens, UniProt O75747)
T15 construct: purchased Eurofins Discovery (DiscoverX KINOMEscan scanMAX)
Procedure: as §1

PIP5K2B = biological target: T16, PIP5K2B (Homo sapiens, UniProt P78356)
T16 construct: purchased Eurofins Discovery (DiscoverX KINOMEscan scanMAX)
Procedure: as §1

RET(V804M) = biological target: T17, RET(V804M) (Homo sapiens, UniProt P07949, V804M)
T17 construct: purchased Eurofins Discovery (DiscoverX KINOMEscan scanMAX)
Procedure: as §1

LCK = biological target: T18, LCK (Homo sapiens, UniProt P06239)
T18 construct: purchased Eurofins Discovery (DiscoverX KINOMEscan scanMAX)
Procedure: as §1

FER = biological target: T19, FER (Homo sapiens, UniProt P16591)
T19 construct: purchased Eurofins Discovery (DiscoverX KINOMEscan scanMAX)
Procedure: as §1

GRK2 = biological target: T20, GRK2 (Homo sapiens, UniProt P25098)
T20 construct: purchased Eurofins Discovery (DiscoverX KINOMEscan scanMAX)
Procedure: as §1

NDR1 = biological target: T21, NDR1 (Homo sapiens, UniProt Q15208)
T21 construct: purchased Eurofins Discovery (DiscoverX KINOMEscan scanMAX)
Procedure: as §1

IRAK4 = biological target: T22, IRAK4 (Homo sapiens, UniProt Q9NWZ3)
T22 construct: purchased Eurofins Discovery (DiscoverX KINOMEscan scanMAX)
Procedure: as §1

ROCK1 = biological target: T23, ROCK1 (Homo sapiens, UniProt Q13464)
T23 construct: purchased Eurofins Discovery (DiscoverX KINOMEscan scanMAX)
Procedure: as §1

CDK4 = biological target: T24, CDK4 (Homo sapiens, UniProt P11802)
T24 construct: purchased Eurofins Discovery (DiscoverX KINOMEscan scanMAX)
Procedure: as §1

RIPK2 = biological target: T25, RIPK2 (Homo sapiens, UniProt O43353)
T25 construct: purchased Eurofins Discovery (DiscoverX KINOMEscan scanMAX)
Procedure: as §1

MLK2 = biological target: T26, MLK2 (Homo sapiens, UniProt Q02779)
T26 construct: purchased Eurofins Discovery (DiscoverX KINOMEscan scanMAX)
Procedure: as §1

FGFR1 = biological target: T27, FGFR1 (Homo sapiens, UniProt P11362)
T27 construct: purchased Eurofins Discovery (DiscoverX KINOMEscan scanMAX)
Procedure: as §1

CSNK2A1 = biological target: T28, CSNK2A1 (Homo sapiens, UniProt P68400)
T28 construct: purchased Eurofins Discovery (DiscoverX KINOMEscan scanMAX)
Procedure: as §1

DMPK2 = biological target: T29, DMPK2 (Homo sapiens, UniProt Q6DT37)
T29 construct: purchased Eurofins Discovery (DiscoverX KINOMEscan scanMAX)
Procedure: as §1

ACVR1B = biological target: T30, ACVR1B (Homo sapiens, UniProt P36896)
T30 construct: purchased Eurofins Discovery (DiscoverX KINOMEscan scanMAX)
Procedure: as §1

T12 sequence (Q15375 28-998): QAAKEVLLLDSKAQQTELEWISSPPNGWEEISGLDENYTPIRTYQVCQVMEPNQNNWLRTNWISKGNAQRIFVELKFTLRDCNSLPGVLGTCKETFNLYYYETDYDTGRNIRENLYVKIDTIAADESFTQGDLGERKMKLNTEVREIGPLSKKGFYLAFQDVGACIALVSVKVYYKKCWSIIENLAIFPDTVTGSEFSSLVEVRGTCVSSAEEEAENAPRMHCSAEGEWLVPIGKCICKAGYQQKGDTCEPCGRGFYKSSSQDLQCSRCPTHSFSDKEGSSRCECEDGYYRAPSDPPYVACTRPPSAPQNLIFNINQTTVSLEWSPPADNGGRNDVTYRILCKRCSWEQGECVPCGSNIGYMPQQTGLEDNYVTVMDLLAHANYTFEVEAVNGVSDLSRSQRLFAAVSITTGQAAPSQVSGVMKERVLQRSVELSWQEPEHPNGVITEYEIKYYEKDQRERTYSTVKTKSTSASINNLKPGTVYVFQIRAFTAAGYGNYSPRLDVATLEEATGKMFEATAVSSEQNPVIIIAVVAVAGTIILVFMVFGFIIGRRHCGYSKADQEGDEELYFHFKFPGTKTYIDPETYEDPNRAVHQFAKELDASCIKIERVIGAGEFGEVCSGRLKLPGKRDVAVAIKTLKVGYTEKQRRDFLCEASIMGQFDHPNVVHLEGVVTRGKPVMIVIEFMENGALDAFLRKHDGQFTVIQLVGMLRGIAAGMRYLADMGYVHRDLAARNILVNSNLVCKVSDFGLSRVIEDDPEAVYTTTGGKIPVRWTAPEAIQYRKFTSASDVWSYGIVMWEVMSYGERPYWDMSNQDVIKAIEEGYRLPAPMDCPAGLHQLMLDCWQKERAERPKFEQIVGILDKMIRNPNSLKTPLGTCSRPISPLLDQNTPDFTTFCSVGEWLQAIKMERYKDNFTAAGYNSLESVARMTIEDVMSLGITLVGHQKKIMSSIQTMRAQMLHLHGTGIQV
T5 sequence (P48736 whole entry): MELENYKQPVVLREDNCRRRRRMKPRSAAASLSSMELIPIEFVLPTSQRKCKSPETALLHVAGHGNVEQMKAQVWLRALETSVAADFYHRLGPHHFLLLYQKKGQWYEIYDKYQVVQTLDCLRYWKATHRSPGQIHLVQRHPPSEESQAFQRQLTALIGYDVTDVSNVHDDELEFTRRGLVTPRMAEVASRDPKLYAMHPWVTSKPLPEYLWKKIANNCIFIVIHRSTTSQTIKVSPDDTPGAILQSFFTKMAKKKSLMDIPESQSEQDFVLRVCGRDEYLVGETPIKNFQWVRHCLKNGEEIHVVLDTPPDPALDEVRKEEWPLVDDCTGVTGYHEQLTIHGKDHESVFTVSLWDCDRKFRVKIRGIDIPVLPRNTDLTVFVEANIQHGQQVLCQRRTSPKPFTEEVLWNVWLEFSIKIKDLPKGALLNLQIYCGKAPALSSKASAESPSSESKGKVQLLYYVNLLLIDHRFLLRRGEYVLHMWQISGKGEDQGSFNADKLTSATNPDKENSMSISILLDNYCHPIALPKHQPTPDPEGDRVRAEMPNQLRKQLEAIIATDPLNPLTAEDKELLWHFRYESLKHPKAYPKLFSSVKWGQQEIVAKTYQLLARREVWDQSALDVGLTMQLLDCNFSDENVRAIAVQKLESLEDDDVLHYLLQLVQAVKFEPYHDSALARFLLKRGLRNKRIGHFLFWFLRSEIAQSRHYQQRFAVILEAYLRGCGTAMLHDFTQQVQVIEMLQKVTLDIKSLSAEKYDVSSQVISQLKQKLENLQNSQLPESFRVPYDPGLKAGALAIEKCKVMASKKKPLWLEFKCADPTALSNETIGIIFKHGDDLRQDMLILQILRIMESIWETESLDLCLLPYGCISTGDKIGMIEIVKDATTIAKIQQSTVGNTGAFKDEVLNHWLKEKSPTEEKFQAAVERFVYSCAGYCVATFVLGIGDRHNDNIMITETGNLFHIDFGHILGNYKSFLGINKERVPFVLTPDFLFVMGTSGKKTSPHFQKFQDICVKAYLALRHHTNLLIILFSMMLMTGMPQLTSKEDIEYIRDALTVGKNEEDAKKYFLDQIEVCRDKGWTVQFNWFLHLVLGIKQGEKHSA
T20 sequence (P25098 whole entry): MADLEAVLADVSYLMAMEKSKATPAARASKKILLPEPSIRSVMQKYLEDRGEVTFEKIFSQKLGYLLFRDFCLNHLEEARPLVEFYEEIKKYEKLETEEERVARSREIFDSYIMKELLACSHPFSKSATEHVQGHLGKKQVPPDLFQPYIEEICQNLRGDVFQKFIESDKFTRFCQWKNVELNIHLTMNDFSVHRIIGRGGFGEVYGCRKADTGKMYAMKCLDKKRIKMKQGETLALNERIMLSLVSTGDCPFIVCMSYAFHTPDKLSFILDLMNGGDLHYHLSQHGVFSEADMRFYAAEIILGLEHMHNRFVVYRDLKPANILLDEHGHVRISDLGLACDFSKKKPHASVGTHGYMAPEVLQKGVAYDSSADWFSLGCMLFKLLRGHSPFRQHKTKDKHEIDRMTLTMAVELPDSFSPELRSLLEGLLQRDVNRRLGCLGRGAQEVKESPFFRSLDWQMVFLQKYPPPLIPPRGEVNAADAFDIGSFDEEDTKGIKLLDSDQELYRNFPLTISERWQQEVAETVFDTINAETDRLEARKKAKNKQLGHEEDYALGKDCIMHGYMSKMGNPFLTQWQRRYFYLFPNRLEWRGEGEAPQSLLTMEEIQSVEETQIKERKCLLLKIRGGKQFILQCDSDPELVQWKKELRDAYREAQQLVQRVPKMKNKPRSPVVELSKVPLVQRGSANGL
T16 sequence (P78356 whole entry): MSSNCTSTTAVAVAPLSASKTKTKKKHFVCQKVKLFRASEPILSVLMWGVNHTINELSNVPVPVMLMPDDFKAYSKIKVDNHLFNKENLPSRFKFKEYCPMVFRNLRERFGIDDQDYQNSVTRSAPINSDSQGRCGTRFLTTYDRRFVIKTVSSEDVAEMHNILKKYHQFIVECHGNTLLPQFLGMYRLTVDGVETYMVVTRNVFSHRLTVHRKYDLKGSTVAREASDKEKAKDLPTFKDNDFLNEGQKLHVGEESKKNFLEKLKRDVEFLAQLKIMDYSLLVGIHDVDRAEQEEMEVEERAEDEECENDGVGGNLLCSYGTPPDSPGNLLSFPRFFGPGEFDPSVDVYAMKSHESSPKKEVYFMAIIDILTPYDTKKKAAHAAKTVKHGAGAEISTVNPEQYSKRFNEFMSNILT
T29 sequence (Q6DT37 whole entry): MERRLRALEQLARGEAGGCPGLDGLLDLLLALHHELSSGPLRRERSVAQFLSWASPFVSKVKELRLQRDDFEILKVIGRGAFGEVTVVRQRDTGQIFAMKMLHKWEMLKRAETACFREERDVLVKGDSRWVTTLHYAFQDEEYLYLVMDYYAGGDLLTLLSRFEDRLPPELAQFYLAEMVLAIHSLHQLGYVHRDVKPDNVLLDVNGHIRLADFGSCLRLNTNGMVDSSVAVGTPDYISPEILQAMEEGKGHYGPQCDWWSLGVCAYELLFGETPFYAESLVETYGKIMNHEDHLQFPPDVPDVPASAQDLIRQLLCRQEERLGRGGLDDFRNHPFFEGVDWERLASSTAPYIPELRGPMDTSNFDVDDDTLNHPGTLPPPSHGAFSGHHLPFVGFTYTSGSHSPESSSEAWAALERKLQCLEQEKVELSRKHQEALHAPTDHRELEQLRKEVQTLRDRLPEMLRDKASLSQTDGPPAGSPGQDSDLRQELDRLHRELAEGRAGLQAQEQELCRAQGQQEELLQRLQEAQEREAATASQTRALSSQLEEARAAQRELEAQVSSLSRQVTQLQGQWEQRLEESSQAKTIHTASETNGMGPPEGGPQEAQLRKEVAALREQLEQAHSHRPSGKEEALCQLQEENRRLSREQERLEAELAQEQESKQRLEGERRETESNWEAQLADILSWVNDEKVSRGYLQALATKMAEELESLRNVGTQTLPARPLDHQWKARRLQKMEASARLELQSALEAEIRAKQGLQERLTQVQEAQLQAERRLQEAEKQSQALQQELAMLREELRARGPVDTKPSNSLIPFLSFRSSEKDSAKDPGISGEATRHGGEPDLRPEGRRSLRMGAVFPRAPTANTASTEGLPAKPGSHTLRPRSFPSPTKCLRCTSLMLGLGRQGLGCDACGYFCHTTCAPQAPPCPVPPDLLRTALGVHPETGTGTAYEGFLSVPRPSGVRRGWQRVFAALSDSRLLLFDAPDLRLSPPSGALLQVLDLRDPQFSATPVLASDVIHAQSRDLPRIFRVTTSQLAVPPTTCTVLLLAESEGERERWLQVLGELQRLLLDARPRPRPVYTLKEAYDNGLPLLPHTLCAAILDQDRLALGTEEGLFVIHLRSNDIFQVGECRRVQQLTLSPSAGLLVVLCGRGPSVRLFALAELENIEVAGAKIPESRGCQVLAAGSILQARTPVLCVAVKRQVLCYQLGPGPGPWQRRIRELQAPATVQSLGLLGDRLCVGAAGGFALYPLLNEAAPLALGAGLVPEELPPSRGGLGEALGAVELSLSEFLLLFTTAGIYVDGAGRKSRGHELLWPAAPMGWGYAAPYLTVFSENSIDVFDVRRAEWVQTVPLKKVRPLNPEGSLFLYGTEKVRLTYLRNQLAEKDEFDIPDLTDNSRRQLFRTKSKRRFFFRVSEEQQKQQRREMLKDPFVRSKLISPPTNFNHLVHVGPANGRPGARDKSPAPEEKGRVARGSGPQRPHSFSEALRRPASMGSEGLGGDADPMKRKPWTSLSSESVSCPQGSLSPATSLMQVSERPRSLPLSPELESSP
T7 sequence (O60674 840-1132 limits assumed): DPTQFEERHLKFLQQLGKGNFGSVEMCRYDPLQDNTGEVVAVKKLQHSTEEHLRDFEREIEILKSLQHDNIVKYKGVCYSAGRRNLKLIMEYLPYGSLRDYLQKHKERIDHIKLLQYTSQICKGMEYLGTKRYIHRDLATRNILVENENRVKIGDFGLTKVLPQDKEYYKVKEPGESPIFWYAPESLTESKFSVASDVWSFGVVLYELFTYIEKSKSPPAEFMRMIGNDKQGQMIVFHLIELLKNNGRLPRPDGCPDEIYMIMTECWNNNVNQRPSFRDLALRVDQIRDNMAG

Which results are given for `Cc1cc(Nc2ccc(F)c(CC3(C(=O)N4CCC(F)(CN5CCN(c6ccc(N7CCC(=O)NC7=O)cn6)CC5)CC4)CCN(Cc4cccc(Cl)c4F)CC3)n2)n[nH]1` [SK5527]?
remaining binding at 0.1 µM (EIF2AK1; 100 nM): 81%; remaining binding at 1 µM (EIF2AK1; 1000 nM): 70%; remaining binding at 0.1 µM ([1]; 100 nM): 100%; remaining binding at 1 µM ([1]; 1000 nM): 80%; remaining binding at 0.1 µM (FLT3(N841I); 100 nM): 83%; remaining binding at 1 µM (FLT3(N841I); 1000 nM): 76%; remaining binding at 0.1 µM (PKAC-alpha; 100 nM): 83%; remaining binding at 1 µM (PKAC-alpha; 1000 nM): 86%; remaining binding at 0.1 µM (PIK3CG; 100 nM): 91%; remaining binding at 1 µM (PIK3CG; 1000 nM): 94%; remaining binding at 0.1 µM ([2]; 100 nM): 68%; remaining binding at 1 µM ([2]; 1000 nM): 19%; remaining binding at 0.1 µM ([3]; 100 nM): 91%; remaining binding at 1 µM ([3]; 1000 nM): 65%; remaining binding at 0.1 µM (IRAK1; 100 nM): 94%; remaining binding at 1 µM (IRAK1; 1000 nM): 76%; remaining binding at 0.1 µM (MST1R; 100 nM): 100%; remaining binding at 1 µM (MST1R; 1000 nM): 100%; remaining binding at 0.1 µM (CAMKK2; 100 nM): 100%; remaining binding at 1 µM (CAMKK2; 1000 nM): 100%; remaining binding at 0.1 µM (PLK1; 100 nM): 58%; remaining binding at 1 µM (PLK1; 1000 nM): 82%; remaining binding at 0.1 µM (EPHA7; 100 nM): 100%; remaining binding at 1 µM (EPHA7; 1000 nM): 82%; remaining binding at 0.1 µM (RIOK1; 100 nM): 100%; remaining binding at 1 µM (RIOK1; 1000 nM): 100%; remaining binding at 0.1 µM ([4]; 100 nM): 94%; remaining binding at 1 µM ([4]; 1000 nM): 86%; remaining binding at 0.1 µM (PIK3C2G; 100 nM): 71%; remaining binding at 1 µM (PIK3C2G; 1000 nM): 98%; remaining binding at 0.1 µM (PIP5K2B; 100 nM): 100%; remaining binding at 1 µM (PIP5K2B; 1000 nM): 100%; remaining binding at 0.1 µM (RET(V804M); 100 nM): 85%; remaining binding at 1 µM (RET(V804M); 1000 nM): 65%; remaining binding at 0.1 µM (LCK; 100 nM): 82%; remaining binding at 1 µM (LCK; 1000 nM): 84%; remaining binding at 0.1 µM (FER; 100 nM): 84%; remaining binding at 1 µM (FER; 1000 nM): 100%; remaining binding at 0.1 µM (GRK2; 100 nM): 100%; remaining binding at 1 µM (GRK2; 1000 nM): 100%; remaining binding at 0.1 µM (NDR1; 100 nM): 98%; remaining binding at 1 µM (NDR1; 1000 nM): 82%; remaining binding at 0.1 µM (IRAK4; 100 nM): 87%; remaining binding at 1 µM (IRAK4; 1000 nM): 70%; remaining binding at 0.1 µM (ROCK1; 100 nM): 96%; remaining binding at 1 µM (ROCK1; 1000 nM): 81%; remaining binding at 0.1 µM (CDK4; 100 nM): 72%; remaining binding at 1 µM (CDK4; 1000 nM): 90%; remaining binding at 0.1 µM (RIPK2; 100 nM): 80%; remaining binding at 1 µM (RIPK2; 1000 nM): 88%; remaining binding at 0.1 µM (MLK2; 100 nM): 100%; remaining binding at 1 µM (MLK2; 1000 nM): 100%; remaining binding at 0.1 µM (FGFR1; 100 nM): 100%; remaining binding at 1 µM (FGFR1; 1000 nM): 92%; remaining binding at 0.1 µM (CSNK2A1; 100 nM): 90%; remaining binding at 1 µM (CSNK2A1; 1000 nM): 69%; remaining binding at 0.1 µM (DMPK2; 100 nM): 100%; remaining binding at 1 µM (DMPK2; 1000 nM): 100%; remaining binding at 0.1 µM (ACVR1B; 100 nM): 100%; remaining binding at 1 µM (ACVR1B; 1000 nM): 100%

— article PMC12670405, “Second-Generation AURKA-Targeting PROTACs: Structural Optimization toward in Vivo Degradation in Neuroblastoma” (Journal of Medicinal Chemistry, 2025)
